The test concerns K562 cells. The test is described as follows: In-vitro cell proliferation assay (MTT), K562 cells. In kind it is cell-based. The following applies: for inhibition at 0.01 µM / inhibition at 0.1 µM: Homo sapiens. Here is the method: In-Vitro Cell Proliferation Assay
K562/U937 cells (2×10^4 per well) were incubated with the test compounds/vehicle in a total volume of 200 μL of media at 37° C. with 5% CO2. […] The cells were incubated overnight at 37° C. with 5% CO2. On Day 5 the optical density was measured at 570 nm with 630 nm as reference wavelength. The optical density in the vehicle treated wells was compared with that of the test compound treated wells.

As to `Cc1ccc(C(=O)NNC(=O)c2c(Cl)cc(Cl)cc2Cl)cc1C#Cc1cnc2ccccc2c1` [I.1, 2,4,6-Trichloro-N′-[4-methyl-3-[2-(3-quinolyl)ethynyl]benzoyl]benzohydrazide], under “10 nM”, the inhibition (commonly the change of the read-out against control, counted positive when it falls) at 0.01 µM amounted to 101%. For the same compound, the inhibition at 0.1 µM (100 nM) is 105%.
The matching figures for `Cc1ccc(C(=O)NNC(=O)c2ccc(CN3CCN(C)CC3)c(C(F)(F)F)c2)cc1C#Cc1cnc2ccccc2c1` [I.3, 4-Methyl-N′-[4-[(4-methylpiperazin-1-yl)methyl]-3-(trifluoromethyl)benzoyl]-3-[2-(3-quinolyl)ethynyl]benzohydrazide]: 14.6% and 73.4%.
Take `Cc1cn(-c2cc(C(=O)NNC(=O)c3ccc(C)c(C#Cc4cnc5ccccc5c4)c3)cc(C(F)(F)F)c2)cn1` [I.7, 4-Methyl-N′-[3-(4-methylimidazol-1-yl)-5-(trifluoromethyl)benzoyl]-3-[2-(3-quinolyl)ethynyl]benzohydrazide]: the inhibition at 0.01 µM (10 nM) was found to be 12.6%. For the setting “100 nM”, the inhibition at 0.1 µM is 43.1%.
The matching figures for `Cc1cc(C)c(C(=O)NNC(=O)c2ccc(C)c(C#Cc3cnc4ccccc4c3)c2)c(C)c1` [I.8, 2,4,6-Trimethyl-N′-[4-methyl-3-[2-(3-quinolyl)ethynyl]benzoyl]benzohydrazide]: 53.6% and 80.3%.
On the same counts, the results for `Cc1ccc(C(=O)NNC(=O)c2c(C)cccc2Br)cc1C#Cc1cnc2ccccc2c1` [I.11, N′-(2-Bromo-6-methylbenzoyl)-4-methyl-3-[2-(3-quinolyl)ethynyl]benzohydrazide] are 78.9% and 79.9%.
For `COc1cccc(C)c1C(=O)NNC(=O)c1ccc(C)c(C#Cc2cnc3ccccc3c2)c1` [I.13, N′-(2-Methoxy-6-methylbenzoyl)-4-methyl-3-[2-(3-quinolyl)ethynyl]benzohydrazide], where the note is “10 nM”, the inhibition at 0.01 µM amounted to 52.2%. Besides, the inhibition at 0.1 µM (100 nM) was found to be 73.5%.
On to `Cc1ccc(C(=O)NNC(=O)c2c(Cl)cc(Cl)cc2Cl)cc1C#Cc1cnc2cnccn12` [I.15, 2,4,6-Trichloro-N′-[3-[2-(2-imidazo[1,2-a]pyrazin-3-yl)ethynyl]-4-methylbenzoyl]benzohydrazide], for which the “% Inhibition of cell proliferation in K562 cells” value was found to be 82.8% (10 nM) and 85.0% (100 nM).
Regarding `Cc1ccc(C(=O)NNC(=O)c2c(C)cccc2Cl)cc1C#Cc1cnc2ccccn12` [I.19, N′-(2-Chloro-6-methylbenzoyl)-3-[2-(imidazo[1,2-a]pyridin-3-yl)ethynyl]-4-methylbenzohydrazide], the inhibition at 0.01 µM (10 nM) stood at 60.2%. In addition, the inhibition at 0.1 µM (100 nM) came to 80.2%.
On to `Cc1cccc(Cl)c1C(=O)NNC(=O)c1ccc(F)c(C#Cc2cnc3ccccc3c2)c1` [I.21, N′-(2-Cchloro-6-methylbenzoyl)-4-fluoro-3-[2-(3-quinolyl)ethynyl]benzohydrazide], for which the “% Inhibition of cell proliferation in K562 cells” value came to 40.9% (10 nM) and 98.6% (100 nM).
On to `Cc1ccc(C(=O)NNC(=O)c2c(F)cccc2I)cc1C#Cc1cnc2ccccc2c1` [I.23, N′-(2-Fluoro-6-iodobenzoyl)-4-methyl-3-[2-(3-quinolyl)ethynyl]benzohydrazide], for which the inhibition at 0.01 µM (10 nM) turned out to be 68.1%. Further, where the note is “100 nM”, the inhibition at 0.1 µM is 72.6%.
`Cc1ccc(C(=O)NNC(=O)c2c(Cl)cccc2C(F)(F)F)cc1C#Cc1cnc2ccccc2c1` [I.24, N′-[2-Chloro-6-(trifluoromethyl)benzoyl]-4-methyl-3-[2-(3-quinolyl)ethynyl]benzohydrazide]: the inhibition at 0.01 µM (10 nM) stood at 71.1%. Besides, the inhibition at 0.1 µM (100 nM) amounted to 71.3%.
On the same counts, the results for `Cc1ccc(C(=O)NNCc2cccnc2Cl)cc1C#Cc1cnc2ccccc2c1` [I.29, N′-(2-Chloronicotinyl)-4-methyl-3-[2-(3-quinolyl)ethynyl]benzohydrazide] are 27.7% and 78.5%.
As to `Cc1ccc(C(=O)NNC(=O)c2ccccc2C)cc1C#Cc1cnc2ccccc2c1` [I.30, N′-(2-Methylbenzoyl)-4-methyl-3-[2-(3-quinolyl)ethynyl]benzohydrazide], the inhibition at 0.01 µM (10 nM) worked out at 49%. For the same compound, the inhibition at 0.1 µM (100 nM) turned out to be 85%.
On the same counts, the results for `CCc1cccc(Cl)c1C(=O)NNC(=O)c1ccc(C)c(C#Cc2cnc3ccccc3c2)c1` [I.31, N′-(2-Chloro-6-ethylbenzoyl)-4-methyl-3-[2-(3-quinolyl)ethynyl]benzohydrazide] are 74.2% and 81.4%.
The matching figures for `Cc1ccc(C(=O)NNC(=O)c2c(Cl)cccc2C(C)C)cc1C#Cc1cnc2ccccc2c1` [I.32, N′-(2-Chloro-6-isopropylbenzoyl)-4-methyl-3-[2-(3-quinolyl)ethynyl]benzohydrazide]: 50.6% and 81.9%.
On the same counts, the results for `COc1cccc(Cl)c1C(=O)NNC(=O)c1ccc(C)c(C#Cc2cnc3ccccc3c2)c1` [I.34, N′-(2-Chloro-6-methoxybenzoyl)-4-methyl-3-[2-(3-quinolyl)ethynyl]benzohydrazide] are 75.5% and 82.2%.
For `Cc1ccc(C(=O)NNC(=O)c2c(C)cccc2[N+](=O)[O-])cc1C#Cc1cnc2ccccc2c1` [I.36, N′-(2-Methyl-6-nitrobenzoyl)-4-methyl-3-[2-(3-quinolyl)ethynyl]benzohydrazide], the inhibition at 0.01 µM (10 nM) was found to be 75.9%. For the same compound, where the note is “100 nM”, the inhibition at 0.1 µM was 77.3%.
On the same counts, the results for `Cc1ccc(C(=O)NNC(=O)c2c(Cl)cccc2I)cc1C#Cc1cnc2ccccc2c1` [I.39, N′-(2-Chloro-6-iodobenzoyl)-4-methyl-3-[2-(3-quinolyl)ethynyl]benzohydrazide] are 77.1% and 80.5%.
The matching figures for `Cc1ccc(C(=O)NNC(=O)c2ccccc2Cl)cc1C#Cc1cnc2ccccc2c1` [I.40, N′-(2-Chlorobenzoyl)-4-methyl-3-[2-(3-quinolyl)ethynyl]benzohydrazide]: 59.9% and 84.3%.
For the compound `Cc1ccc(C(=O)NNC(=O)c2c(Cl)cccc2Cl)cc1C#Cc1cnc2cccnn12` [I.41, N′-(2,6-Dichlorobenzoyl)-4-methyl-3-[(imidazo(1,2-b)pyridazin-3-yl)ethynyl]benzohydrazide], the inhibition at 0.01 µM (10 nM) was 82.5%. Further, where the note is “100 nM”, the inhibition at 0.1 µM came out at 81.1%.
On the same counts, the results for `Cc1ccc2ncc(C#Cc3cc(C(=O)NNC(=O)c4c(C)cccc4Cl)ccc3C)cc2c1` [I.44, N′-(2-Chloro-6-methylbenzoyl)-4-methyl-3-[2-(6-methyl-3-quinolyl)ethynyl]benzohydrazide] are 77.7% and 84.4%.
On the same counts, the results for `Cc1ccc(C(=O)N(C)NC(=O)c2c(C)cccc2Cl)cc1C#Cc1cnc2ccccc2c1` [I.45, N-Methyl-N′-(2-Chloro-6-methylbenzoyl)-4-methyl-3-[2-(3-quinolyl)ethynyl]benzohydrazide] are 10.2% and 78.2%.
As to `Cc1ccc(C(=O)NNC(=O)c2c(C)cccc2C)cc1C#Cc1cnc2ccccc2c1` [I.46, N′-(2,6-Dimethylbenzoyl)-4-methyl-3-[2-(3-quinolyl)ethynyl]benzohydrazide], under “10 nM”, the inhibition at 0.01 µM was 77.9%. Further, the inhibition at 0.1 µM (100 nM) is 83.9%.

(Values after patent US9024021B2, “Diarylacetylene hydrazide containing tyrosine kinase inhibitors” (Sun Pharma Advanced Research Company Ltd., priority 2011, dated 2015).)
